Experimental data taken from US20260199484A1, “PROTAC DEGRADERS OF MLLT1 AND/OR MLLT3” (DARK BLUE THERAPEUTICS LTD, priority 2024, published 2026).

Tests used:
MV4-11 cells = assay: MV4-11 cellular proliferative assay, Assay Format A (CellTiter-Glo, 120 h); assay type: cell-based; conditions: Homo sapiens, Assay format A, 120 h, read-out: IC50 (MV4-11 cellular proliferative assay)
Protocol: An MV4-11 proliferation assay was used to test the ability of compounds to reduce cell viability. MV4-11 cells (ATCC #CRL9591) were grown in IMDM medium (11510596, Gibco) supplemented with 10% fetal bovine serum (F7524, Gibco) and 1% Penicillin/Streptomycin (15140-122, Gibco) at 37° C. with 5% CO2. Cells were seeded in 384-well Elplasia plates (4447, Corning) at a density of 50 cells/well and treated with vehicle (DMSO) or compounds (10 serial semi-log dilutions, 30 μM as top concentration).
After 120 hours of treatment, cells were incubated for 10 min at RT with the CellTiter-Glo (CTG) reagent (G7571, Promega). Measurement of the luminescence signal was performed on a microplate reader (Ensight, PerkinElmer). CTG reagent measures the amount of ATP, which is directly proportional to the number of cells, to determine the number of viable cells in culture.
The data were analysed as follows:
[formula] • where x is the measured raw signal value of a well, (cr) is the median of the measured signal values for the Central Reference (DMSO) wells on a plate, (sr) is the median of the measured signal values for the Scale Reference (reference compound) wells on a plate.
[formula] • where the experimental set-up assumes the Hill parameters in certain ranges: S0~Central Reference (CR) from normalization (=Bottom), Sinf~Scale Reference (SR) from normalization (=Top), nHill ~1, AC50~within the measured concentration range.

MLLT1 = target: T1, MLLT1 (Homo sapiens, UniProt Q03111); assay: MLLT1 degradation assay in MV4-11 cells (JESS, 24 h); assay type: cell-based; parameters: endogenous in cells; host or cells: MV4-11 (ATCC CRL-9591); conditions: vs DMSO control
T1 sequence (Q03111 1-559): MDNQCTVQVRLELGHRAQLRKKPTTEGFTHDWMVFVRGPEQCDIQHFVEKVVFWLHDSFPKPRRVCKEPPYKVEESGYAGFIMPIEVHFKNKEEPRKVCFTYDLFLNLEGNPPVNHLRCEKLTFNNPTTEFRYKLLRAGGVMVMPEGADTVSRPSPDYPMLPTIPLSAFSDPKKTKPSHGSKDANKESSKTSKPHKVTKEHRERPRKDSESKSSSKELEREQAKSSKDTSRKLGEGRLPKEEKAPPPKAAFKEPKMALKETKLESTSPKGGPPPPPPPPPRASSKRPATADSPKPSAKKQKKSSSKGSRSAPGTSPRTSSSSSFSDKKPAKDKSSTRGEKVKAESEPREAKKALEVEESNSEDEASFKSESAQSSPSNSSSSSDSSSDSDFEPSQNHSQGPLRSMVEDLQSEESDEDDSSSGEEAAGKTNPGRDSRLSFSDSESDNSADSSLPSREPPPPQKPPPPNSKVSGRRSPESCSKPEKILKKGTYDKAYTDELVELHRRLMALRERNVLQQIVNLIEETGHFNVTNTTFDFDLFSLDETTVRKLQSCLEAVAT
In short: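 MV4-11 cells treated at 1000, 100 and 10 nM (0.1% DMSO) for 24 h at 37° C; lysates (4 ug protein) run on JESS capillary immunoassay with MLLT1 and GAPDH antibodies. Peak areas give % degradation versus DMSO, binned A (≥75%) to D (<25%).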

Row | Compound | IC50 (MV4-11 cells) | MLLT1% Degradation @ 0.01 μM (MLLT1) | MLLT1% Degradation @ 0.1 μM (MLLT1) | MLLT1% Degradation @ 1 μM (MLLT1)
1 | Cc1nn(CCCCCC#Cc2cccc3c2C(=O)N(C2CCC(=O)NC2=O)C3=O)c2cc(C(=O)Nc3cc4[nH]c([C@H]5CCCN5C)cc4cn3)ccc12 (stereo partly drawn) [Example 33, 1-(7-(2-(2,6-dioxopiperidin-3-yl)-1,3-dioxoisoindolin-4-yl)hept-6-yn-1-yl)-3-methyl-N-(2-((R)-1-methylpyrrolidin-2-yl)-1H-pyrrolo[3,2-c]pyridin-6-yl)-1H-indazole-6-carboxamide] | < 100 nM | B (Category B: 50%≤B<75% degradation) | B (Category B: 50%≤B<75% degradation) | A (Category A: A≥75% degradation)
2 | CCN1CCC[C@@H]1c1cc2cnc(NC(=O)c3ccc4c(C)nn(CCCCCCCC#Cc5cccc6c5CN(C5CCC(=O)NC5=O)C6=O)c4c3)cc2[nH]1 (stereo partly drawn) [Example 48, 1-(9-(2-(2,6-dioxopiperidin-3-yl)-1-oxoisoindolin-4-yl)non-8-yn-1-yl)-N-(2-((R)-1-ethylpyrrolidin-2-yl)-1H-pyrrolo[3,2-c]pyridin-6-yl)-3-methyl-1H-indazole-6-carboxamide] | < 100 nM | C (Category C: 25%≤C<50% degradation) | B (Category B: 50%≤B<75% degradation) | A (Category A: A≥75% degradation)
3 | Cc1nn(CCCOCC#Cc2cccc3c2CN(C2CCC(=O)NC2=O)C3=O)c2cc(C(=O)Nc3cc4[nH]c([C@H]5CCCN5C)cc4cn3)ccc12 (stereo partly drawn) [Example 31, 1-(3-((3-(2-(2,6-dioxopiperidin-3-yl)-1-oxoisoindolin-4-yl)prop-2-yn-1-yl)oxy)propyl)-3-methyl-N-(2-((R)-1-methylpyrrolidin-2-yl)-1H-pyrrolo[3,2-c]pyridin-6-yl)-1H-indazole-6-carboxamide] | < 100 nM | C (Category C: 25%≤C<50% degradation) | B (Category B: 50%≤B<75% degradation) | A (Category A: A≥75% degradation)
4 | Cc1nn(CCCCCCCCNc2cccc3c2C(=O)N(C2CCC(=O)NC2=O)C3=O)c2cc(C(=O)Nc3cc4[nH]c([C@H]5CCCN5C)c(Cl)c4cn3)ccc12 (stereo partly drawn) [Example 18, N-(3-chloro-2-((R)-1-methylpyrrolidin-2-yl)-1H-pyrrolo[3,2-c]pyridin-6-yl)-1-(8-((2-(2,6-dioxopiperidin-3-yl)-1,3-dioxoisoindolin-4-yl)amino)octyl)-3-methyl-1H-indazole-6-carboxamide] | < 100 nM | A (Category A: A≥75% degradation) | A (Category A: A≥75% degradation) | A (Category A: A≥75% degradation)
5 | Cc1nn(CCCCCC#Cc2cccc3c2CN(C2CCC(=O)NC2=O)C3=O)c2cc(C(=O)Nc3cc4[nH]c([C@H]5CCCN5C)cc4cn3)ccc12 (stereo partly drawn) [Example 30, 1-(7-(2-(2,6-dioxopiperidin-3-yl)-1-oxoisoindolin-4-yl)hept-6-yn-1-yl)-3-methyl-N-(2-((R)-1-methylpyrrolidin-2-yl)-1H-pyrrolo [3,2-c]pyridin-6-yl)-1H-indazole-6-carboxamide] | < 100 nM | A (Category A: A≥75% degradation) | A (Category A: A≥75% degradation) | A (Category A: A≥75% degradation)
6 | Cc1nn(CCCC#Cc2cccc3c2CN(C2CCC(=O)NC2=O)C3=O)c2cc(C(=O)Nc3cc4[nH]c([C@H]5CCCN5C)cc4cn3)ccc12 (stereo partly drawn) [Example 32, 1-(5-(2-(2,6-dioxopiperidin-3-yl)-1-oxoisoindolin-4-yl)pent-4-yn-1-yl)-3-methyl-N-(2-((R)-1-methylpyrrolidin-2-yl)-1H-pyrrolo[3,2-c]pyridin-6-yl)-1H-indazole-6-carboxamide] | < 100 nM | B (Category B: 50%≤B<75% degradation) | A (Category A: A≥75% degradation) | B (Category B: 50%≤B<75% degradation)
7 | Cc1nn(CCCCCN2CCN(c3cc4c(cc3F)C(=O)N(C3CCC(=O)NC3=O)C4=O)CC2)c2cc(C(=O)Nc3cc4[nH]c([C@H]5CCCN5C)cc4cn3)ccc12 (stereo partly drawn) [Example 23, 1-(5-(4-(2-(2,6-dioxopiperidin-3-yl)-6-fluoro-1,3-dioxoisoindolin-5-yl)piperazin-1-yl)pentyl)-3-methyl-N-(2-((R)-1-methylpyrrolidin-2-yl)-1H-pyrrolo[3,2-c]pyridin-6-yl)-1H-indazole-6-carboxamide] | < 100 nM | A (Category A: A≥75% degradation) | A (Category A: A≥75% degradation) | A (Category A: A≥75% degradation)
8 | CN1CCC[C@@H]1c1cc2cnc(NC(=O)c3ccc4c(cnn4CCCCCCCC#Cc4cccc5c4CN(C4CCC(=O)NC4=O)C5=O)c3)cc2[nH]1 (stereo partly drawn) [Example 38, 1-(9-(2-(2,6-dioxopiperidin-3-yl)-1-oxoisoindolin-4-yl)non-8-yn-1-yl)-N-(2-((R)-1-methylpyrrolidin-2-yl)-1H-pyrrolo[3,2-c]pyridin-6-yl)-1H-indazole-5-carboxamide] | < 100 nM | B (Category B: 50%≤B<75% degradation) | A (Category A: A≥75% degradation) | B (Category B: 50%≤B<75% degradation)
9 | Cc1nn(CCCCCCC#Cc2cccc3c2CN(C2CCC(=O)NC2=O)C3=O)c2cc(C(=O)Nc3cc4[nH]c([C@H]5CCCN5C)cc4cn3)ccc12 (stereo partly drawn) [Example 45, 1-(8-(2-(2,6-dioxopiperidin-3-yl)-1-oxoisoindolin-4-yl)oct-7-yn-1-yl)-3-methyl-N-(2-((R)-1-methylpyrrolidin-2-yl)-1H-pyrrolo[3,2-c]pyridin-6-yl)-1H-indazole-6-carboxamide] | < 100 nM | A (Category A: A≥75% degradation) | A (Category A: A≥75% degradation) | A (Category A: A≥75% degradation)
10 | CN1CCC[C@@H]1c1cc2cnc(NC(=O)c3ccc4c(cnn4CCCCCCCCNc4cccc5c4C(=O)N(C4CCC(=O)NC4=O)C5=O)c3)cc2[nH]1 (stereo partly drawn) [Example 36, 1-(8-((2-(2,6-dioxopiperidin-3-yl)-1,3-dioxoisoindolin-4-yl)amino)octyl)-N-(2-((R)-1-methylpyrrolidin-2-yl)-1H-pyrrolo[3,2-c]pyridin-6-yl)-1H-indazole-5-carboxamide] | < 100 nM | A (Category A: A≥75% degradation) | A (Category A: A≥75% degradation) | A (Category A: A≥75% degradation)
